This note sets out measurements from patent US6849421B2, “Assays for compounds modulating human serine protease C-E” (Ortho-McNeil Pharmaceutical, Inc., priority 1999, dated 2005).

Ends that are not written are not given here. * marks the point of attachment. pNA = O=[N+]([O-])c1ccc(N*)cc1

In test [1] the target is T1, activated protease C-E-6XHIS (Homo sapiens, UniProt Q9GZN4).
T1 construct: made in house; host or cells: Sf9 insect cells (baculovirus, pFastBac1)
T1 sequence (Q9GZN4 with tags, fused parts or gaps): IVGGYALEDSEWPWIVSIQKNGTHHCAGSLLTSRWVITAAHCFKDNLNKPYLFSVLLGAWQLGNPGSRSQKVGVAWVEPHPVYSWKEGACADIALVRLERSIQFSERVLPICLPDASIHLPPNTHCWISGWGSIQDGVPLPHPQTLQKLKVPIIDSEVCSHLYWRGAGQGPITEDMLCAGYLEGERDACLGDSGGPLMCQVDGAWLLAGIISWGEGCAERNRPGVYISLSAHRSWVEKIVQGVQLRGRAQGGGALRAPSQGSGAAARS
In words: Chromogenic amidolytic activity assay, release of para-nitroaniline (pNA) from synthetic substrates. Conditions: recombinant activated protease C-E-6XHIS; substrate 500 uM; 10 mM Tris-HCl pH 7.8, 25 mM NaCl, 25 mM imidazole; 37° C., 90 minutes; 405 nm; N.A. = No Activity. It counts as biochemical. How it is done:
Eluted protein concentration was determined by a Micro BCA Kit (Pierce, Rockford, Ill.) using bovine serum albumin as a standard. Amidolytic activities of the activated protease C-E-6XHIS was monitored by release of para-nitroaniline (pNA) from the synthetic substrates indicated in Table 1. The chromogenic substrates used in these studies were all commercially available (Bachem California Inc., Torrance, Pa.; American Diagnostica Inc., Greenwich, Conn.; Kabi Pharmacia Hepar Inc., Franklin, Ohio). Assay mixtures contained chromogenic substrates at 500 uM and 10 mM Tris-HCl (pH 7.8), 25 mM NaCl, and 25 mM imidazole. Release of pNA was measured over 90 minutes at 37° C. on a micro-plate reader (Molecular Devices, Menlo Park, Calif.) with a 405 mn absorbance filter. The initial reaction rates (Vmax, mOD/min) were determined from plots of absorbance versus time using Softmax (Molecular Devices, Menlo Park, Calif.). The specific activities (nmole pNA produced/min/μg protein) of the activated protease C-E-6XHIS for the various substrates are presented in Table 1.
Amidolytic activities of the activated serine proteases are monitored by release of para-nitroaniline (pNA) from synthetic substrates that are commercially available (Bachem California Inc., Torrance, Pa.; American Diagnostica Inc., Greenwich, Conn.; Kabi Pharmacia Hepar Inc., Franklin, Ohio). Assay mixtures contain chromogenic substrates in 500 uM and 10 mM TRIS-HCl (pH 7.8), 25 mM NaCl, and 25 mM imidazole. Release of pNA is measured over 120 min at 37° C. on a micro-plate reader (Molecular Devices, Menlo Park, Calif.) with a 405 nm absorbance filter. The initial reaction rates (Vmax, mOD/min) are determined from plots of absorbance versus time using Softmax (Molecular Devices, Menlo Park, Calif.). […] Although in the present case chromogenic activity is monitored by an increase in absorbance, fluorogenic assays or other methods such as FRET to measure proteolytic activity as mentioned above, can be employed. […]

Test [2] is described as follows: Chromogenic amidolytic activity of the purified unactivated zymogen. Conditions: not cleaved with enterokinase, same chromogenic substrates. Type of test: biochemical, human.

Regarding H—D—Lys(CBO)—Pro—Arg—pNA, in test [1], the “Specific Activity” value is given as 0.002 ± 0.000 nmole pNA produced/min/μg protein.
On the same count and under the same terms, for H—D—Pro—HHT—Arg—pNA the value was 0.008 ± 0.001 nmole pNA produced/min/μg protein.
Phe-Arg-pNA: the “Specific Activity” value in test [1] is given as 0.058 ± 0.006 nmole pNA produced/min/μg protein.

B1: PFEK-protease C-E-6XHIS zymogen: secreted recombinant zymogen of human serine protease C-E catalytic domain with FLAG, enterokinase site and 6XHIS tag, from Sf9 cells (protein)
chain: MDSKGSSQKSRLLLLLVVSNLLLCQGVVSDYKDDDDVDAAALAAPFDDDDKIVGGYALEDSEWPWIVSIQKNGTHHCAGSLLTSRWVITAAHCFKDNLNKPYLFSVLLGAWQLGNPGSRSQKVGVAWVEPHPVYSWKEGACADIALVRLERSIQFSERVLPICLPDASIHLPPNTHCWISGWGSIQDGVPLPHPQTLQKLKVPIIDSEVCSHLYWRGAGQGPITEDMLCAGYLEGERDACLGDSGGPLMCQVDGAWLLAGIISWGEGCAERNRPGVYISLSAHRSWVEKIVQGVQLRGRAQGGGALRAPSQGSGAAARSSRHHHHHH
For B1, in test [2], the chromogenic amidolytic activity result is “No measurable chromogenic amidolytic activity”.
